# Reference: ChEMBL document CHEMBL3885881, “DrugMatrix”
# Species on record: Rattus norvegicus
# Test: DrugMatrix - Regimen: Daily Repeat
# Format: toxicity, organism-based, Sprague-Dawley
# Set-up: regimen Daily Repeat, gender Male, age 6-8 weeks
# Settings: in vivo, po, route oral GAVAGE, vehicle 100 % WATER; for ABSOLUTE BASOPHIL / ABSOLUTE EOSINOPHIL / ABSOLUTE LYMPHOCYTE / ABSOLUTE MONOCYTE / ABSOLUTE SEGMENTED NEUTROPHIL / BASOPHIL / EOSINOPHIL / ERYTHROCYTE COUNT / HEMATOCRIT / HEMOGLOBIN / LEUKOCYTE COUNT / LYMPHOCYTE / MEAN CORPUSCULAR HEMOGLOBIN / MEAN CORPUSCULAR HEMOGLOBIN CONCENTRATION / MEAN CORPUSCULAR VOLUME / MONOCYTE / NEUTROPHIL / NUCLEATED RED BLOOD CELLS / PLATELET COUNT: tissue Blood; for ALANINE AMINOTRANSFERASE / ALBUMIN / ALKALINE PHOSPHATASE / ASPARTATE AMINOTRANSFERASE / BLOOD UREA NITROGEN / CARBON DIOXIDE / CHLORIDE / CHOLESTEROL / CREATINE PHOSPHOKINASE / CREATININE / GLUCOSE / LACTATE DEHYDROGENASE / LIPASE / PHOSPHORUS / POTASSIUM / SODIUM / TOTAL BILIRUBIN / TOTAL PROTEIN / URIC ACID: tissue Plasma
# [1] = 60 mg/kg, 120 h, dose level Low, time 5 day
# [2] = 1300 mg/kg, 72 h, dose level High, time 3 day
# [3] = 1300 mg/kg, 120 h, dose level High, time 5 day
smiles,measurement,setting,value
CC(C)C[C@H](NC(=O)[C@@H](O)[C@H](N)Cc1ccccc1)C(=O)O [UBENIMEX],ABSOLUTE BASOPHIL,[1],0 CELLS/uL
same,ABSOLUTE EOSINOPHIL,[1],0 CELLS/uL
same,ABSOLUTE LYMPHOCYTE,[1],15131 CELLS/uL
same,ABSOLUTE MONOCYTE,[1],122 CELLS/uL
same,ABSOLUTE SEGMENTED NEUTROPHIL,[1],847 CELLS/uL
same,BASOPHIL,[1],0%
same,EOSINOPHIL,[1],0%
same,ERYTHROCYTE COUNT,[1],5.87 x10E6/uL
same,HEMATOCRIT,[1],36.17%
same,HEMOGLOBIN,[1],14.03 G/DL
same,LEUKOCYTE COUNT,[1],16.1 x10E3/uL
same,LYMPHOCYTE,[1],94.33%
same,MEAN CORPUSCULAR HEMOGLOBIN,[1],23.9 pg
same,MEAN CORPUSCULAR HEMOGLOBIN CONCENTRATION,[1],38.77 G/DL
same,MEAN CORPUSCULAR VOLUME,[1],61.53 fL
same,MONOCYTE,[1],0.67%
same,NEUTROPHIL,[1],5%
same,NUCLEATED RED BLOOD CELLS,[1],0 /100WBC
same,PLATELET COUNT,[1],1187.67 x10E3/uL
same,ALANINE AMINOTRANSFERASE,[1],53.33 u/L
same,ALBUMIN,[1],4.3 G/DL
same,ALKALINE PHOSPHATASE,[1],289.33 u/L
same,ASPARTATE AMINOTRANSFERASE,[1],93.33 u/L
same,BLOOD UREA NITROGEN,[1],16.33 mg/dL
same,CARBON DIOXIDE,[1],23.67 mmol/L
same,CHLORIDE,[1],105 MEQ/L
same,CHOLESTEROL,[1],62.33 mg/dL
same,CREATINE PHOSPHOKINASE,[1],463.33 u/L
same,CREATININE,[1],0.26 mg/dL
same,GLUCOSE,[1],146.33 mg/dL
same,LACTATE DEHYDROGENASE,[1],498.67 u/L
same,LIPASE,[1],9 u/L
same,PHOSPHORUS,[1],11.2 mg/dL
same,POTASSIUM,[1],5.71 MEQ/L
same,SODIUM,[1],144.27 MEQ/L
same,TOTAL BILIRUBIN,[1],0.13 mg/dL
same,TOTAL PROTEIN,[1],6.1 G/DL
same,URIC ACID,[1],1.37 mg/dL
same,ABSOLUTE BASOPHIL,[2],0 CELLS/uL
same,ABSOLUTE EOSINOPHIL,[2],88 CELLS/uL
same,ABSOLUTE LYMPHOCYTE,[2],12244.33 CELLS/uL
same,ABSOLUTE MONOCYTE,[2],144 CELLS/uL
same,ABSOLUTE SEGMENTED NEUTROPHIL,[2],1690.33 CELLS/uL
same,BASOPHIL,[2],0%
same,EOSINOPHIL,[2],0.67%
same,ERYTHROCYTE COUNT,[2],5.72 x10E6/uL
same,HEMATOCRIT,[2],34.83%
same,HEMOGLOBIN,[2],14.07 G/DL
same,LEUKOCYTE COUNT,[2],14.17 x10E3/uL
same,LYMPHOCYTE,[2],86.33%
same,MEAN CORPUSCULAR HEMOGLOBIN,[2],24.63 pg
same,MEAN CORPUSCULAR HEMOGLOBIN CONCENTRATION,[2],40.37 G/DL
same,MEAN CORPUSCULAR VOLUME,[2],60.93 fL
same,MONOCYTE,[2],1%
same,NEUTROPHIL,[2],12%
same,NUCLEATED RED BLOOD CELLS,[2],0 /100WBC
same,PLATELET COUNT,[2],1238.33 x10E3/uL
same,ALANINE AMINOTRANSFERASE,[2],54.33 u/L
same,ALBUMIN,[2],4 G/DL
same,ALKALINE PHOSPHATASE,[2],304.33 u/L
same,ASPARTATE AMINOTRANSFERASE,[2],87 u/L
same,BLOOD UREA NITROGEN,[2],14 mg/dL
same,CARBON DIOXIDE,[2],23.67 mmol/L
same,CHLORIDE,[2],102.33 MEQ/L
same,CHOLESTEROL,[2],63.33 mg/dL
same,CREATINE PHOSPHOKINASE,[2],350.33 u/L
same,CREATININE,[2],0.18 mg/dL
same,GLUCOSE,[2],197.67 mg/dL
same,LACTATE DEHYDROGENASE,[2],237.33 u/L
same,LIPASE,[2],9 u/L
same,PHOSPHORUS,[2],10.53 mg/dL
same,POTASSIUM,[2],5.18 MEQ/L
same,SODIUM,[2],142.5 MEQ/L
same,TOTAL BILIRUBIN,[2],0.17 mg/dL
same,TOTAL PROTEIN,[2],5.7 G/DL
same,URIC ACID,[2],1.27 mg/dL
same,ABSOLUTE BASOPHIL,[3],0 CELLS/uL
same,ABSOLUTE EOSINOPHIL,[3],28.67 CELLS/uL
same,ABSOLUTE LYMPHOCYTE,[3],12669 CELLS/uL
same,ABSOLUTE MONOCYTE,[3],277.67 CELLS/uL
same,ABSOLUTE SEGMENTED NEUTROPHIL,[3],1191.33 CELLS/uL
same,BASOPHIL,[3],0%
same,EOSINOPHIL,[3],0.33%
same,ERYTHROCYTE COUNT,[3],5.82 x10E6/uL
same,HEMATOCRIT,[3],35.73%
same,HEMOGLOBIN,[3],14.33 G/DL
same,LEUKOCYTE COUNT,[3],14.17 x10E3/uL
same,LYMPHOCYTE,[3],89.67%
same,MEAN CORPUSCULAR HEMOGLOBIN,[3],24.6 pg
same,MEAN CORPUSCULAR HEMOGLOBIN CONCENTRATION,[3],40.17 G/DL
same,MEAN CORPUSCULAR VOLUME,[3],61.37 fL
same,MONOCYTE,[3],2%
same,NEUTROPHIL,[3],8%
same,NUCLEATED RED BLOOD CELLS,[3],0 /100WBC
same,PLATELET COUNT,[3],1144.33 x10E3/uL
same,ALANINE AMINOTRANSFERASE,[3],48.33 u/L
same,ALBUMIN,[3],4.23 G/DL
same,ALKALINE PHOSPHATASE,[3],308.67 u/L
same,ASPARTATE AMINOTRANSFERASE,[3],76.67 u/L
same,BLOOD UREA NITROGEN,[3],16.67 mg/dL
same,CARBON DIOXIDE,[3],25.67 mmol/L
same,CHLORIDE,[3],108.67 MEQ/L
same,CHOLESTEROL,[3],58.33 mg/dL
same,CREATINE PHOSPHOKINASE,[3],244.67 u/L
same,CREATININE,[3],0.23 mg/dL
same,GLUCOSE,[3],155.67 mg/dL
same,LACTATE DEHYDROGENASE,[3],228.67 u/L
same,LIPASE,[3],10 u/L
same,PHOSPHORUS,[3],9.27 mg/dL
same,POTASSIUM,[3],6.1 MEQ/L
same,SODIUM,[3],150.27 MEQ/L
same,TOTAL BILIRUBIN,[3],0.2 mg/dL
same,TOTAL PROTEIN,[3],6.03 G/DL
same,URIC ACID,[3],1.53 mg/dL
